Results published in ChEMBL document CHEMBL1201862, “PubChem BioAssay data set” (2004).
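Where inhibition never reached the appropriate level, the endpoint shown equals the highest concentration tested. Otherwise, values were interpolated linearly from a five-concentration, 48-hour dose response in 96-well plates. Here, GI50 denotes the concentration required for 50% inhibition of growth.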 Active and inactive are the calls of the source. Cut-off read from the data, not from the text of the source: active = GI50 up to about 1.1 µM and inactive = higher.

Key:
Experiment in all cases: growth of human tumour cells (NCI), 48 h
786-0 = system: 786-0
A549 = system: A549
ACHN = system: ACHN
BT-549 = system: BT-549
CAKI-1 = system: CAKI-1
CCRF-CEM = system: CCRF-CEM
COLO 205 = system: COLO 205
DU-145 = system: DU-145
EKVX = system: EKVX
HCT-116 = system: HCT-116
HCT-15 = system: HCT-15
HOP-62 = system: HOP-62
HT-29 = system: HT-29
Hs-578T = system: Hs-578T
IGROV-1 = system: IGROV-1
K562 = system: K562
KM12 = system: KM12
LOX IMVI = system: LOX IMVI
M14 = system: M14
MCF7 = system: MCF7
MDA-MB-231 = system: MDA-MB-231
MDA-MB-435 = system: MDA-MB-435
MDA-N = system: MDA-N
MOLT-4 = system: MOLT-4
Malme-3M = system: Malme-3M
NCI-H23 = system: NCI-H23
NCI-H460 = system: NCI-H460
NCI-H522 = system: NCI-H522
NCI/ADR-RES = system: NCI/ADR-RES
OVCAR-3 = system: OVCAR-3
OVCAR-4 = system: OVCAR-4
OVCAR-5 = system: OVCAR-5
OVCAR-8 = system: OVCAR-8
PC-3 = system: PC-3
RXF 393 = system: RXF 393
SF-268 = system: SF-268
SF-295 = system: SF-295
SK-MEL-28 = system: SK-MEL-28
SK-MEL-2 = system: SK-MEL-2
SK-MEL-5 = system: SK-MEL-5
SK-OV-3 = system: SK-OV-3
SN12C = system: SN12C
SNB-19 = system: SNB-19
SNB-75 = system: SNB-75
SR = system: SR
SW-620 = system: SW-620
T47D = system: T47D
TK-10 = system: TK-10
U-251 = system: U-251
UACC-257 = system: UACC-257
UACC-62 = system: UACC-62
UO-31 = system: UO-31
A498 = system: A498
HOP-92 = system: HOP-92
NCI-H226 = system: NCI-H226

Measured: GI50

O=C1C=Cc2c1csc2Br
inactive: 786-0 25.8 µM | A549 41.5 µM | ACHN 30.7 µM | BT-549 27.4 µM | CAKI-1 > 100 µM | CCRF-CEM 16.9 µM | COLO 205 64.7 µM | DU-145 > 100 µM | EKVX 87.5 µM | HCT-116 43.3 µM | HOP-62 > 100 µM | HT-29 96.8 µM | Hs-578T 41.2 µM | IGROV-1 38.3 µM | K562 26.5 µM | KM12 50.8 µM | LOX IMVI 25.5 µM | M14 19.1 µM | MCF7 24.9 µM | MDA-MB-231 91.8 µM | MDA-MB-435 32.1 µM | MDA-N 50 µM | MOLT-4 21.3 µM | Malme-3M 38.1 µM | NCI-H23 33 µM | NCI-H460 > 100 µM | NCI-H522 18.7 µM | NCI/ADR-RES 33.8 µM | OVCAR-3 71 µM | OVCAR-4 70.8 µM | OVCAR-5 > 100 µM | OVCAR-8 38.2 µM | PC-3 65.3 µM | RXF 393 71.4 µM | SF-268 86.9 µM | SF-295 > 100 µM | SK-MEL-28 63.1 µM | SK-MEL-2 > 100 µM | SK-MEL-5 69.3 µM | SK-OV-3 > 100 µM | SN12C > 100 µM | SNB-19 70.3 µM | SNB-75 > 100 µM | SR 10.6 µM | SW-620 22.3 µM | T47D 54.5 µM | TK-10 65 µM | U-251 51.2 µM | UACC-257 67.3 µM | UACC-62 35.3 µM | UO-31 24.2 µM
28.6 µM: HCT-15

COC(=O)CCCC(=O)O
inactive: 786-0 > 100 µM | A498 > 100 µM | A549 > 100 µM | ACHN > 100 µM | BT-549 > 100 µM | CAKI-1 > 100 µM | COLO 205 > 100 µM | DU-145 > 100 µM | EKVX > 100 µM | HCT-116 > 100 µM | HOP-62 > 100 µM | HOP-92 > 100 µM | HT-29 > 100 µM | Hs-578T > 100 µM | IGROV-1 > 100 µM | KM12 > 100 µM | LOX IMVI > 100 µM | M14 > 100 µM | MCF7 > 100 µM | MDA-MB-231 > 100 µM | MDA-MB-435 > 100 µM | MDA-N > 100 µM | MOLT-4 > 100 µM | Malme-3M > 100 µM | NCI-H226 > 100 µM | NCI-H23 > 100 µM | NCI-H460 > 100 µM | NCI-H522 > 100 µM | NCI/ADR-RES > 100 µM | OVCAR-3 > 100 µM | OVCAR-4 > 100 µM | OVCAR-5 > 100 µM | OVCAR-8 > 100 µM | PC-3 > 100 µM | RXF 393 > 100 µM | SF-268 > 100 µM | SF-295 > 100 µM | SK-MEL-28 > 100 µM | SK-MEL-2 > 100 µM | SK-MEL-5 > 100 µM | SN12C > 100 µM | SNB-19 > 100 µM | SNB-75 > 100 µM | SR > 100 µM | SW-620 > 100 µM | T47D > 100 µM | TK-10 > 100 µM | U-251 > 100 µM | UACC-257 > 100 µM | UACC-62 > 100 µM | UO-31 > 100 µM
> 100 µM: HCT-15
